Measured values published in patent EP0064487A1, “New substituted 3-(parasubstituted)phenoxy-1-alkylamino-propanol-2-s, as well as process for their preparation, pharmaceutical preparations containing same, and method for treating cardiac failure” (priority 1981, dated 1982).

Experiments:
[1] = tested on: inotropic effect (max dF/dt) in the aorta; test: Duration of positive inotropic action (decline of max dF/dt in the aorta) in conscious dogs, i.v. dosing; type: in vivo; conditions: conscious beagle dogs, intravenous
Procedure: The duration of action of the compounds has been studied in conscious beagle dogs. An electromagnetic flow probe was inplanted on the ascending aorta for determination of the r inotropic effect measured as maximal flow acceleration (max dF/dt) in the aorta. For determination of blood pressure catheters were inplanted in thoracic aorta and .left atrium. Increasing doses of the substances were administered intravenously and the decline of inotropic effect (max dF/dt) was used for determination of duration.

[2] = tested on: contractility of the heart; test: Positive inotropic effect (increase in max dP/dt) in reserpine-pretreated, anaesthetized cats, i.v. dosing; type: in vivo; conditions: continuous infusion
Procedure: The positive inotropic effect and the cardioselectivity of the compounds were studied in cats with an average weight of 3 kg. The animals were pretreated with reserpine (5 mg/kg i.p.) about 16 hours before experiment. This treatment eliminated the reflex sympathetic control of the heart and the vascular tonus. Following pentobarbital anaesthesia (Mebumal^e, 30 mg/kg i.p.) artificial air respiration was started. The two vagus nerves were cut and the adrenal glands were excluded from the circulation by means of ligatures on the adrenal veins.
Blood pH, pC02 and p02 were kept within the normal ranges throughout the experiments. All recordings were made on a Grass Polygraph. Heart rate, pressure in the left ventricle (LVP), the first derivative of LVP (dP/dt), intra-arterial blood pressure and peripheral resistance were recorded. LVP was recorded via a catheter tip pressure transducer (Millar), which was inserted via the left carotid artery. This.pressure curve was differentiated and max dP/dt was recorded by means of a peak detector. The recording of max dP/dt was linear up to 20 […]. The increase in max dP/dt was used as a measure of the increased contractility of the heart.
The substances were administered intravenously in increasing doses. […]

SMILES: CC(C)NCC(O)c1ccc(O)c(O)c1 (centres unmarked) [isoprenaline]
- time for 50% decline of the positive inotropic effect (max dF/dt) [1]: less than 1 min
- Half maximal effect [2]: 0.004 µmol/kg/min
